Each compound was assayed on RKO p21 uninduced (proliferating) colon adenocarcinoma cells (assay: Alamar Blue cell viability assay, RKO p21 uninduced (proliferating)). Details: Homo sapiens, Table B3, anti-proliferative/cytotoxic activity, 72 hours, read-out: −log EC50 RKO p21 uninduced (proliferating) (converted).
Type: cell-based
Experimental: The anti-proliferative/cytotoxic activity of the compounds described herein can be tested on subclones of RKO human colon adenocarcinoma cells (Schmidt et al., Oncogene 19, 2423-2429; 2000) using the Alamar Blue cell viability assay (described in O'Brien et al. Eur J Biochem 267, 5421-5426, 2000). The compounds are dissolved as 10 mM solutions in DMSO and subsequently diluted in semi-logarithmic steps. DMSO dilutions are further diluted 1:100 into Dulbecco's modified Eagle's medium (DMEM) containing 10% fetal calf serum to a final concentration twice as much as the final concentration in the test. RKO subclones are seeded into 96 well flat bottom plates at a density of 4000 cells per well in a volume of 50 μl per well. 24 hours after seeding the 50 μl each of the compound dilutions in DMEM medium are added into each well of the 96 well plate. Each compound dilution is tested as triplicates. Wells containing untreated control cells are filled with 50 μl DMEM medium containing 1% DMSO. The cells are then incubated with the substances for 72 hours at 37° C. in a humidified atmosphere containing 5% carbon dioxide. To determine the viability of the cells, 10 μl of an Alamar Blue solution (Biosource) are added and the fluorescence is measured at an extinction of 544 nm and an emission of 590 nm. For the calculation of the cell viability the emission value from untreated cells is set as 100% viability and the emission rates of treated cells are set in relation to the values of untreated cells. Viabilities are expressed as % values. The Graphpad Prism program is used for the calculation of EC50 values for anti-proliferative/cytotoxic activity out of the obtained dose-response curves.
To determine the cell cycle specific mode of action, subclones of RKO colon adenocarcinoma cells (RKOp21 or RKOp27 as described by Schmidt et al. in Oncogene 19, 2423-2429; 2000) are seeded into 96 well flat bottom plates at a density of 16000 cells per well in a volume of 50 μl per well in DMEM growth medium with 10% FCS containing 10 μM Ponasterone A. 24 hours after seeding the 50 μl each of the compound dilutions in DMEM medium are added into each well of the 96-well plate. Each compound dilution is tested as triplicates. Wells containing untreated control cells are filled with 50 μl DMEM medium containing 1% DMSO. The cells are then incubated with the substances for 72 hours at 37° C. in a humidified atmosphere containing 5% carbon dioxide. To determine the viability of the cells, 10 μl of an Alamar Blue solution (Biosource) are added and the fluorescence is measured at an extinction of 544 nm and an emission of 590 nm. For the calculation of the cell viability the emission value from untreated cells is set as 100% viability and the emission rates of treated cells are set in relation to the values of untreated cells. Viabilities are expressed as % values. The Graphpad Prism program (GraphPad Software, Inc) is used for the calculation of EC50 values out of the obtained dose-response curves. Viability is compared of proliferating cells grown in the absence of the inducer Ponasterone A, versus viability of cells arrested by the expression of ectopic p27Kip1 induced by Ponasterone A.
Representative values for anti-proliferation/cytotoxicity [measured as −log EC50 (mol/l)] determined in the aforementioned assays follow from the following tables B1, B2 and B3, in which the numbers of the compounds correspond to the numbers of the examples.

Question: How did the EC50 turn out when `CCOc1ccc2[nH]c3c(c2c1)C[C@@]1(C)C(=O)N(CCCNC2CC2)C(=O)N1[C@@H]3c1cccc(O)c1` (racemic) [Example 190, (3aSR,10RS)-2-(3-Cyclopropylamino-propyl)-6-ethoxy-10-(3-hydroxy-phenyl)-3a-methyl-3a,4,9,10-tetrahydro-2,9,10a-triaza-cyclopenta[b]fluorene-1,3-dione] was run?
Answer: 0.0398 to 0.251 µM

Question: With `C=CCNCCCN1C(=O)N2[C@H](c3cccc(O)c3)c3[nH]c4ccc(OCC)cc4c3C[C@@]2(C)C1=O` (racemic) [Example 191, (3aSR,10RS)-2-(3-Allylamino-propyl)-6-ethoxy-10-(3-hydroxy-phenyl)-3a-methyl-3a,4,9,10-tetrahydro-2,9,10a-triaza-cyclopenta[b]bluorene-1,3-dione] as the compound, how does the EC50 read?
Answer: 0.0398 to 0.251 µM

Question: For `CCOc1ccc2[nH]c3c(c2c1)C[C@@]1(C)C(=O)N(CCCN(C)CC)C(=O)N1[C@@H]3c1cccc(O)c1` (racemic) [Example 192, (3aSR,10RS)-6-Ethoxy-2-[3-(ethyl-methyl-amino)-propyl]-10-(3-hydroxy-phenyl)-3a-methyl-3a,4,9,10-tetrahydro-2,9,10a-triaza-cyclopenta[b]fluorene-1,3-dione], which EC50 is on record?
Answer: 0.0398 to 0.251 µM

Question: For `CCOc1ccc2[nH]c3c(c2c1)C[C@@]1(C)C(=O)N(CCCN(C)CCO)C(=O)N1[C@@H]3c1cccc(O)c1` (racemic) [Example 193, (3aSR,10RS)-6-Ethoxy-2-{3-[(2-hydrox-ethyl)-methyl-amino]-propyl}-10-(3-hydroxy-phenyl)-3a-methyl-3a,4,9,10-tetrahydro-2,9,10a-triaza-cyclopenta[b]fluorene-1,3-dione], which EC50 is on record?
Answer: 0.0398 to 0.251 µM

Question: How did the EC50 turn out when `CCOc1ccc2[nH]c3c(c2c1)C[C@@]1(C)C(=O)N(CCCN(CC)CCO)C(=O)N1[C@@H]3c1cccc(O)c1` (racemic) [Example 194, (3aSR,10RS)-6-Ethoxy-2-{3-[ethyl-(2-hydroxy-ethyl)-amino]-propyl}-10-(3-hydroxy-phenyl)-3a-methyl-3a,4,9,10-tetrahydro-2,9,10a-triaza-cyclopenta[b]fluorene-1,3-dione] was run?
Answer: 0.0398 to 0.251 µM

Question: `CCOc1ccc2[nH]c3c(c2c1)C[C@@]1(C)C(=O)N(CCCN(CC)CCOC)C(=O)N1[C@@H]3c1cccc(O)c1` (racemic) [Example 195, (3aSR,10RS)-6-Ethoxy-2-{3-[ethyl-(2-methoxy-ethyl)-amino]-propyl}-10-(3-hydroxy-phenyl)-3a-methyl-3a,4,9,10-tetrahydro-2,9,10a-triaza-cyclopenta[b]fluorene-1,3-dione] was tested. Which EC50 did it give?
Answer: 0.0398 to 0.251 µM

Question: With `C=CCN(C)CCCN1C(=O)N2[C@H](c3cccc(O)c3)c3[nH]c4ccc(OCC)cc4c3C[C@@]2(C)C1=O` (racemic) [Example 196, (3aSR,10RS)-2-[3-(Allyl-methyl-amino)-propyl]-6-ethoxy-10-(3-hydroyx-phenyl)-3a-methyl-3a,4,9,10-tetrahydro-2,9,10a-triaza-cyclopenta[b]fluorene-1,3-dione] as the compound, how does the EC50 read?
Answer: 0.0398 to 0.251 µM

Question: How did the EC50 turn out when `CCOc1ccc2[nH]c3c(c2c1)C[C@@]1(C)C(=O)N(CCCN(C)C(C)C)C(=O)N1[C@@H]3c1cccc(O)c1` (racemic) [Example 197, (3aSR,10RS)-6-Ethoxy-10-(3-hydroxy-phenyl)-2-[3-(isopropyl-methyl-amino)-propyl]-3a-methyl-3a,4,9,10-tetrahydro-2,9,10a-triaza-cyclpenta[b]fluorene-1,3-dione] was run?
Answer: 0.0398 to 0.251 µM

Question: How did the EC50 turn out when `CCOc1ccc2[nH]c3c(c2c1)C[C@@]1(C)C(=O)N(CCCN2CCC2)C(=O)N1[C@@H]3c1cccc(O)c1` (racemic) [Example 198, (3aSR,10RS)-2-(3-Azetidin-1-yl-propyl)-6-ethoxy-10-(3-hydroxy-phenyl)-3a-methyl-3a,4,9,10-tetrahydro-2,9,10a-triaza-cyclopenta[b]fluorene-1,3-dione] was run?
Answer: 0.0398 to 0.251 µM

Question: For `CC(C)CNCCCN1C(=O)N2[C@H](c3cccc(O)c3)c3[nH]c4ccc(OC(F)F)cc4c3C[C@@]2(C)C1=O` (racemic) [Example 199, (3aSR,10RS)-6-(1,1-Difluoro-methoxy)-10-(3-hydroxy-phenyl)-2-(3-isobutylamino-propyl)-3a-methyl-3a,4,9,10-tetrahydro-2,9,10a-triaza-cyclopenta[b]fluorene-1,3-dione], which EC50 is on record?
Answer: 0.0398 to 0.251 µM

Question: With `C[C@@]12Cc3c([nH]c4ccc(OC(F)F)cc34)[C@@H](c3cccc(O)c3)N1C(=O)N(CCCNCC1CC1)C2=O` (racemic) [Example 200, (3aSR,10RS)-2-[3-(Cyclopropylmethyl-amino)-propyl]-6-(1,1-difluoro-methoxy)-10-(3-hydroxy-phenyl)-3a-methyl-3a,4,9,10-tetrahydro-2,9,10a-triaza-cyclopenta[b]fluorene-1,3-dione] as the compound, how does the EC50 read?
Answer: 0.0398 to 0.251 µM

Question: Which EC50 does the source give for `C[C@@]12Cc3c([nH]c4ccc(OC(F)F)cc34)[C@@H](c3cccc(O)c3)N1C(=O)N(CCCNCCO)C2=O` (racemic) [Example 201, (3aSR,10RS)-6-(1,1-Difluoro-methoxy)-2-[3-(2-hydroxy-ethylamino)-propyl]-10-(3-hydroxy-phenyl)-3a-methyl-3a,4,9,10-tetrahydro-2,2,10a-triaza-cyclopenta[b]fluorene-1,3-dione] here?
Answer: 0.0398 to 0.251 µM

Question: With `C[C@@]12Cc3c([nH]c4ccc(OC(F)F)cc34)[C@@H](c3cccc(O)c3)N1C(=O)N(CCCNC1CC1)C2=O` (racemic) [Example 202, (3aSR,10RS)-2-(3-Cyclopropylamino-propyl)-6-(1,1-difluoro-methoxy)-10-(3-hydroxy-phenyl)-3a-methyl-3a,4,9,10-tetrahydro-2,9,10a-triaza-cyclopenta[b]fluorene-1,3-dione] as the compound, how does the EC50 read?
Answer: 0.0398 to 0.251 µM

Question: How did the EC50 turn out when `CNCCCN1C(=O)N2[C@H](c3cccc(O)c3)c3[nH]c4ccc(OC(F)F)cc4c3C[C@@]2(C)C1=O` (racemic) [Example 203, (3aSR,10RS)-6-(1,1-Difluoro-methoxy)-10-(3-hydroxy-phenyl)-3a-methyl-2-(3-methylamino-propyl)-3a,4,9,10-tetrahydro-2,9,10a-triaza-cyclopenta[b]fluorene-1,3-dione] was run?
Answer: 0.0398 to 0.251 µM

Question: For `CCNCCCN1C(=O)N2[C@H](c3cccc(O)c3)c3[nH]c4ccc(OC(F)F)cc4c3C[C@@]2(C)C1=O` (racemic) [Example 204, (3aSR,10RS)-6-(1,1-Difluoro-methoxy)-2-(3-ethylamino-propyl)-10-(3-hydroxy-phenyl)-3a-methyl-3a,4,9,10-tetrahydro-2,9,10a-triaza-cyclopenta[b]fluorene-1,3-dione], which EC50 is on record?
Answer: 0.0398 to 0.251 µM

Question: `COCCNCCCN1C(=O)N2[C@H](c3cccc(O)c3)c3[nH]c4ccc(OC(F)F)cc4c3C[C@@]2(C)C1=O` (racemic) [Example 205, (3aSR,10RS)-6-(1,1-Difluoro-methoxy)-10-(3-hydroxy-phenyl)-2-[3-(2-methoxy-ethylamino)-propyl]-3a-methyl-3a,4,9,10-tetrahydro-2,9,10a-triaza-cyclopenta[b]fluorene-1,3-dione] was tested. Which EC50 did it give?
Answer: 0.0398 to 0.251 µM

Question: `C=CCNCCCN1C(=O)N2[C@H](c3cccc(O)c3)c3[nH]c4ccc(OC(F)F)cc4c3C[C@@]2(C)C1=O` (racemic) [Example 206, (3aSR,10RS)-2-(3-Allylamino-propyl)-6-(1,1-difluoro-methoxy)-10-(3-hydroxy-phenyl)-3a-methyl-3a,4,9,10-tetrahydro-2,9,10a-triaza-cyclopenta[b]fluorene-1,3-dione] was tested. Which EC50 did it give?
Answer: 0.0398 to 0.251 µM

Question: How did the EC50 turn out when `CCOc1ccc2[nH]c3c(c2c1)C[C@@]1(C)C(=O)N(CCCN2CCOCC2)C(=O)N1[C@@H]3c1cccc(O)c1` (racemic) [Example 207, (3aSR,10RS)-6-Ethoxy-10-(3-hydroxy-phenyl)-3a-methyl-2-(3-morpholin-4-yl-propyl)-3a,4,9,10-tetrahydro-2,9,10a-triaza-cyclopenta[b]fluorene-1,3-dione] was run?
Answer: 0.0398 to 0.251 µM

Question: How did the EC50 turn out when `CCOc1ccc2[nH]c3c(c2c1)C[C@@]1(C)C(=O)N(CCCN2CC=CCC2)C(=O)N1[C@@H]3c1cccc(O)c1` (racemic) [Example 208, (3aSR,10RS)-2-[3-(3,6-Dihydro-2H-pyridin-1-yl)-propyl]-6-ethoxy-10-(3-hydroyx-phenyl)-3a-methyl-3a,4,9,10-tetrahydro-2,9,10a-triaza-cyclopenta[b]fluorene-1,3-dione] was run?
Answer: 0.0398 to 0.251 µM

Reference: patent publication US8530493B2, “Indolopyridines as Eg5 kinesin modulators” (4SC AG, priority 2006, dated 2013)
